Reference: article PMC2984425, “Safety and pharmacokinetics of novel selective vascular endothelial growth factor receptor-2 inhibitor YN968D1 in patients with advanced malignancies” (BMC Cancer, 2010)

System: patients with advanced solid tumors
Experiment: Treatment-related adverse events graded by NCI-CTC v3.0
Assay type: in vivo, human
Experimental: Medical records and laboratory tests were obtained during screening. Physical examination, routine laboratory evaluations, and performance status were assessed at baseline and at specified time points throughout the trial. AEs and concomitant medications were recorded at the end of each cycle. The safety evaluation period extended through 30 days from the last dose of study drug or through recovery to grade 1 or better from all acute toxicities associated with drug administration. Toxicity was evaluated and graded according to the NCI-CTC for Adverse Events, version 3.0.

`N#CC1(c2ccc(NC(=O)c3cccnc3NCc3ccncc3)cc2)CCCC1` [apatinib] was tested, and the “Hoarseness grade 1-2, No.” value (850 mg cohort) was 1, the “Hyperbilirubinemia grade 1-2, %” value (850 mg cohort) was 23.1% and the “Hyperbilirubinemia grade 1-2, No.” value (850 mg cohort) was 3. The “Hypertension grade 1-2, %” value (850 mg cohort) was 69.2%, the “Hypertension grade 1-2, No.” value (850 mg cohort) was 9 and the “Infection grade 1-2, %” value (850 mg cohort) was 23.1%. For the same molecule, the “Infection grade 1-2, No.” value (850 mg cohort) was 3, the “Mucosal ulcers grade 1-2, %” value (850 mg cohort) was 15.4% and the “Mucosal ulcers grade 1-2, No.” value (850 mg cohort) was 2. The “Neutropenia grade 1-2, %” value (850 mg cohort) was 30.8%, the “Neutropenia grade 1-2, No.” value (850 mg cohort) was 4 and the “Neutropenia grade 3-4, %” value (850 mg cohort) was 15.4%. The “Neutropenia grade 3-4, No.” value (850 mg cohort) was 2, the “Pain grade 1-2, %” value (850 mg cohort) was 23.1% and the “Pain grade 1-2, No.” value (850 mg cohort) was 3. The “Proteinuria grade 1-2, %” value (850 mg cohort) was 38.5%, the “Proteinuria grade 1-2, No.” value (850 mg cohort) was 5 and the “Proteinuria grade 3-4, %” value (850 mg cohort) was 7.7%. The “Proteinuria grade 3-4, No.” value (850 mg cohort) was 1, the “Rash grade 1-2, %” value (850 mg cohort) was 7.7% and the “Rash grade 1-2, No.” value (850 mg cohort) was 1. The “Thrombocytopenia grade 1-2, %” value (850 mg cohort) was 15.4%, the “Thrombocytopenia grade 1-2, No.” value (850 mg cohort) was 2 and the “Thrombocytopenia grade 3-4, %” value (850 mg cohort) was 7.7%. For the same molecule, the “Thrombocytopenia grade 3-4, No.” value (850 mg cohort) was 1, the “Transaminase Increased grade 1-2, %” value (850 mg cohort) was 23.1% and the “Transaminase Increased grade 1-2, No.” value (850 mg cohort) was 3. For the same molecule, the “Transaminase Increased grade 3-4, %” value (850 mg cohort) was 15.4%, the “Transaminase Increased grade 3-4, No.” value (850 mg cohort) was 2 and the “Vomiting grade 3-4, %” value (850 mg cohort) was 7.7%. For the same molecule, the “Vomiting grade 3-4, No.” value (850 mg cohort) was 1, the “Anemia grade 3-4, %” value (1000 mg cohort) was 33.3% and the “Anemia grade 3-4, No.” value (1000 mg cohort) was 1. The “Anorexia grade 1-2, %” value (1000 mg cohort) was 33.3%, the “Anorexia grade 1-2, No.” value (1000 mg cohort) was 1 and the “Fatigue grade 1-2, %” value (1000 mg cohort) was 33.3%. The “Fatigue grade 1-2, No.” value (1000 mg cohort) was 1, the “Fatigue grade 3-4, %” value (1000 mg cohort) was 33.3% and the “Fatigue grade 3-4, No.” value (1000 mg cohort) was 1. The “Hand-Food Syndrome grade 3-4, %” value (1000 mg cohort) was 33.3%, the “Hand-Food Syndrome grade 3-4, No.” value (1000 mg cohort) was 1 and the “Hypertension grade 1-2, %” value (1000 mg cohort) was 66.7%. The “Hypertension grade 1-2, No.” value (1000 mg cohort) was 2, the “Hypertension grade 3-4, %” value (1000 mg cohort) was 33.3% and the “Hypertension grade 3-4, No.” value (1000 mg cohort) was 1. For the same molecule, the “Infection grade 1-2, %” value (1000 mg cohort) was 33.3%, the “Infection grade 1-2, No.” value (1000 mg cohort) was 1 and the “Mucosal ulcers grade 1-2, %” value (1000 mg cohort) was 66.7%. The “Mucosal ulcers grade 1-2, No.” value (1000 mg cohort) was 2, the “Neutropenia grade 1-2, %” value (1000 mg cohort) was 100% and the “Neutropenia grade 1-2, No.” value (1000 mg cohort) was 3. The “Pain grade 1-2, %” value (1000 mg cohort) was 33.3%, the “Pain grade 1-2, No.” value (1000 mg cohort) was 1 and the “Thrombocytopenia grade 1-2, %” value (1000 mg cohort) was 33.3%. For the same molecule, the “Thrombocytopenia grade 1-2, No.” value (1000 mg cohort) was 1, the “Transaminase Increased grade 1-2, %” value (1000 mg cohort) was 33.3% and the “Transaminase Increased grade 1-2, No.” value (1000 mg cohort) was 1. For the same molecule, the “Transaminase Increased grade 3-4, %” value (1000 mg cohort) was 33.3%, the “Transaminase Increased grade 3-4, No.” value (1000 mg cohort) was 1 and the “Albinism grade 1-2, %” value (Total, all cohorts) was 2.2%. The “Albinism grade 1-2, No.” value (Total, all cohorts) was 1, the “Anemia grade 1-2, %” value (Total, all cohorts) was 15.2% and the “Anemia grade 1-2, No.” value (Total, all cohorts) was 7. The “Anemia grade 3-4, %” value (Total, all cohorts) was 4.3%, the “Anemia grade 3-4, No.” value (Total, all cohorts) was 2 and the “Anorexia grade 1-2, %” value (Total, all cohorts) was 15.2%. The “Anorexia grade 1-2, No.” value (Total, all cohorts) was 7, the “Diarrhea grade 1-2, %” value (Total, all cohorts) was 13% and the “Diarrhea grade 1-2, No.” value (Total, all cohorts) was 6. The “Dyspnea grade 1-2, %” value (Total, all cohorts) was 2.2%, the “Dyspnea grade 1-2, No.” value (Total, all cohorts) was 1 and the “Fatigue grade 1-2, %” value (Total, all cohorts) was 21.7%. For the same molecule, the “Fatigue grade 1-2, No.” value (Total, all cohorts) was 10, the “Fatigue grade 3-4, %” value (Total, all cohorts) was 4.3% and the “Fatigue grade 3-4, No.” value (Total, all cohorts) was 2. For the same molecule, the “Hand-Food Syndrome grade 1-2, %” value (Total, all cohorts) was 32.6%, the “Hand-Food Syndrome grade 1-2, No.” value (Total, all cohorts) was 15 and the “Hand-Food Syndrome grade 3-4, %” value (Total, all cohorts) was 13%. For the same molecule, the “Hand-Food Syndrome grade 3-4, No.” value (Total, all cohorts) was 6, the “Hemorrhage grade 1-2, %” value (Total, all cohorts) was 21.7% and the “Hemorrhage grade 1-2, No.” value (Total, all cohorts) was 10. For the same molecule, the “Hemorrhage grade 3-4, %” value (Total, all cohorts) was 2.2%, the “Hemorrhage grade 3-4, No.” value (Total, all cohorts) was 1 and the “Hoarseness grade 1-2, %” value (Total, all cohorts) was 8.7%. For the same molecule, the “Hoarseness grade 1-2, No.” value (Total, all cohorts) was 4, the “Hyperbilirubinemia grade 1-2, %” value (Total, all cohorts) was 6.5% and the “Hyperbilirubinemia grade 1-2, No.” value (Total, all cohorts) was 3. For the same molecule, the “Hyperbilirubinemia grade 3-4, %” value (Total, all cohorts) was 2.2%, the “Hyperbilirubinemia grade 3-4, No.” value (Total, all cohorts) was 1 and the “Hypertension grade 1-2, %” value (Total, all cohorts) was 63%. The “Hypertension grade 1-2, No.” value (Total, all cohorts) was 29, the “Hypertension grade 3-4, %” value (Total, all cohorts) was 6.5% and the “Hypertension grade 3-4, No.” value (Total, all cohorts) was 3. For the same molecule, the “Infection grade 1-2, %” value (Total, all cohorts) was 21.7%, the “Infection grade 1-2, No.” value (Total, all cohorts) was 10 and the “Mucosal ulcers grade 1-2, %” value (Total, all cohorts) was 17.4%. For the same molecule, the “Mucosal ulcers grade 1-2, No.” value (Total, all cohorts) was 8, the “Mucosal ulcers grade 3-4, %” value (Total, all cohorts) was 4.3% and the “Mucosal ulcers grade 3-4, No.” value (Total, all cohorts) was 2. The “Neutropenia grade 1-2, %” value (Total, all cohorts) was 34.8%, the “Neutropenia grade 1-2, No.” value (Total, all cohorts) was 16 and the “Neutropenia grade 3-4, %” value (Total, all cohorts) was 8.7%. For the same molecule, the “Neutropenia grade 3-4, No.” value (Total, all cohorts) was 4, the “Pain grade 1-2, %” value (Total, all cohorts) was 26.1% and the “Pain grade 1-2, No.” value (Total, all cohorts) was 12. For the same molecule, the “Pain grade 3-4, %” value (Total, all cohorts) was 8.7%, the “Pain grade 3-4, No.” value (Total, all cohorts) was 4 and the “Proteinuria grade 1-2, %” value (Total, all cohorts) was 34.8%. For the same molecule, the “Proteinuria grade 1-2, No.” value (Total, all cohorts) was 16, the “Proteinuria grade 3-4, %” value (Total, all cohorts) was 13% and the “Proteinuria grade 3-4, No.” value (Total, all cohorts) was 6. For the same molecule, the “Rash grade 1-2, %” value (Total, all cohorts) was 6.5%, the “Rash grade 1-2, No.” value (Total, all cohorts) was 3 and the “Thrombocytopenia grade 1-2, %” value (Total, all cohorts) was 26.1%. The “Thrombocytopenia grade 1-2, No.” value (Total, all cohorts) was 12, the “Thrombocytopenia grade 3-4, %” value (Total, all cohorts) was 2.2% and the “Thrombocytopenia grade 3-4, No.” value (Total, all cohorts) was 1. The “Transaminase Increased grade 1-2, %” value (Total, all cohorts) was 28.3%, the “Transaminase Increased grade 1-2, No.” value (Total, all cohorts) was 13 and the “Transaminase Increased grade 3-4, %” value (Total, all cohorts) was 8.7%. The “Transaminase Increased grade 3-4, No.” value (Total, all cohorts) was 4, the “Vomiting grade 1-2, %” value (Total, all cohorts) was 8.7% and the “Vomiting grade 1-2, No.” value (Total, all cohorts) was 4. For the same molecule, the “Vomiting grade 3-4, %” value (Total, all cohorts) was 2.2%, the “Vomiting grade 3-4, No.” value (Total, all cohorts) was 1 and the “hypertension, drug-related AE, all grades” value (all patients, N = 46) was 69.5%. The “proteinuria, drug-related AE, all grades” value (all patients, N = 46) was 47.8%, the “bleeding, patients” value (all patients, most at tumor sites) was 23.9% and the “patients who developed HFS that progressed to grade 3” value (in vivo) was “About 10%”.
